According to ChEMBL document CHEMBL4373664, “Importance of lipophilicity for potent anti-herpes simplex virus-1 activity of α-hydroxytropolones” (Medchemcomm, 2019):
Calls of active or inactive are those of the source. No cut-off for these calls is given here.

System: Human alphaherpesvirus 1
Test: Antiviral activity against HSV-1 infected in African green monkey Vero cells assessed as suppression of viral replication at 0.2 uM after 24 hrs by plaque reduction assay based phase contrast microscopy
Format: functional
Details: not given

**Q.** For `Cc1cc(O)c(=O)c(O)cc1C(=O)C1CCCCC1`, which “log(activity)” value is on record?
**A.** 0.62

**Q.** Which “log(activity)” value does the source give for `Cc1cc(O)c(=O)c(O)cc1C(=O)c1ccc(Br)cc1` here?
**A.** 0.09

**Q.** With `Cc1cc(O)c(=O)c(O)cc1C(=O)c1ccc([N+](=O)[O-])cc1` as the molecule, how does the “log(activity)” value read?
**A.** 0.03

**Q.** For `Cc1cc(O)c(=O)c(O)cc1S(=O)(=O)c1ccc(-c2ccccc2)cc1`, which “log(activity)” value is on record?
**A.** inactive

**Q.** For `Cc1cc(O)c(=O)c(O)cc1C(=O)c1ccc(-c2ccccc2)cc1`, which “log(activity)” value is on record?
**A.** 0.43

**Q.** With `Cc1cc(O)c(=O)c(O)cc1-c1ccc(-c2ccccc2)cc1` as the molecule, how does the “log(activity)” value read?
**A.** -0.05

**Q.** With `Cc1cc(O)c(=O)c(O)cc1C(=O)c1cccc(Br)c1` as the molecule, how does the “log(activity)” value read?
**A.** 0.09

**Q.** With `Cc1cc(O)c(=O)c(O)cc1C(=O)c1ccccc1` as the molecule, how does the “log(activity)” value read?
**A.** inactive

**Q.** Which “log(activity)” value does the source give for `Cc1cc(O)c(=O)c(O)cc1C(=O)c1cccc(-c2cccc3ccccc23)c1` here?
**A.** 0.15

**Q.** Which “log(activity)” value does the source give for `Cc1cc(O)c(=O)c(O)cc1C(=O)c1ccc2ccc3cccc4ccc1c2c34` here?
**A.** 0.93

**Q.** With `Cc1cc(O)c(=O)c(O)cc1C(=O)c1ccccc1O` as the molecule, how does the “log(activity)” value read?
**A.** 0.1

**Q.** For `Cc1cc(O)c(=O)c(O)cc1C(=O)c1cccs1`, which “log(activity)” value is on record?
**A.** 0.16

**Q.** Which “log(activity)” value does the source give for `CCCCCCCCCCCCCC(=O)c1cc(O)c(=O)c(O)cc1C` here?
**A.** 0.36

System: Human alphaherpesvirus 1
Test: Antiviral activity against HSV-1 infected in African green monkey Vero cells assessed as suppression of viral replication at 1 uM after 24 hrs by plaque reduction assay based phase contrast microscopy
Format: functional
Details: not given

**Q.** Which “log(activity)” value does the source give for `Cc1cc(O)c(=O)c(O)cc1C(=O)C1CCCCC1` here?
**A.** 0.76

**Q.** Which “log(activity)” value does the source give for `Cc1cc(O)c(=O)c(O)cc1C(=O)c1ccc(Br)cc1` here?
**A.** 0.42

**Q.** For `Cc1cc(O)c(=O)c(O)cc1C(=O)c1ccc([N+](=O)[O-])cc1`, which “log(activity)” value is on record?
**A.** 0.6

**Q.** Which “log(activity)” value does the source give for `Cc1cc(O)c(=O)c(O)cc1S(=O)(=O)c1ccc(-c2ccccc2)cc1` here?
**A.** -0.34

**Q.** For `Cc1cc(O)c(=O)c(O)cc1C(=O)c1ccc(-c2ccccc2)cc1`, which “log(activity)” value is on record?
**A.** 4.86

**Q.** With `Cc1cc(O)c(=O)c(O)cc1-c1ccc(-c2ccccc2)cc1` as the molecule, how does the “log(activity)” value read?
**A.** 4.09

**Q.** For `Cc1cc(O)c(=O)c(O)cc1C(=O)c1cccc(Br)c1`, which “log(activity)” value is on record?
**A.** 0.21

**Q.** With `Cc1cc(O)c(=O)c(O)cc1C(=O)c1ccccc1` as the molecule, how does the “log(activity)” value read?
**A.** 0.11

**Q.** Which “log(activity)” value does the source give for `Cc1cc(O)c(=O)c(O)cc1C(=O)c1cccc(-c2cccc3ccccc23)c1` here?
**A.** 3.15

**Q.** For `Cc1cc(O)c(=O)c(O)cc1C(=O)c1ccc2ccc3cccc4ccc1c2c34`, which “log(activity)” value is on record?
**A.** 5.01

**Q.** For `Cc1cc(O)c(=O)c(O)cc1C(=O)c1ccccc1O`, which “log(activity)” value is on record?
**A.** 0.86

**Q.** For `Cc1cc(O)c(=O)c(O)cc1C(=O)c1cccs1`, which “log(activity)” value is on record?
**A.** -0.06

**Q.** With `CCCCCCCCCCCCCC(=O)c1cc(O)c(=O)c(O)cc1C` as the molecule, how does the “log(activity)” value read?
**A.** 1.58

System: Human alphaherpesvirus 1
Test: Antiviral activity against HSV-1 infected in African green monkey Vero cells assessed as suppression of viral replication at 5 uM after 24 hrs by plaque reduction assay based phase contrast microscopy
Format: functional
Details: not given

**Q.** For `Cc1cc(O)c(=O)c(O)cc1C(=O)C1CCCCC1`, which “log(activity)” value is on record?
**A.** 5.14

**Q.** Which “log(activity)” value does the source give for `Cc1cc(O)c(=O)c(O)cc1C(=O)c1ccc(Br)cc1` here?
**A.** 5.4

**Q.** Which “log(activity)” value does the source give for `Cc1cc(O)c(=O)c(O)cc1C(=O)c1ccc([N+](=O)[O-])cc1` here?
**A.** 3.91

**Q.** For `Cc1cc(O)c(=O)c(O)cc1S(=O)(=O)c1ccc(-c2ccccc2)cc1`, which “log(activity)” value is on record?
**A.** 4.44

**Q.** With `Cc1cc(O)c(=O)c(O)cc1C(=O)c1ccc(-c2ccccc2)cc1` as the molecule, how does the “log(activity)” value read?
**A.** 4.72

**Q.** With `Cc1cc(O)c(=O)c(O)cc1-c1ccc(-c2ccccc2)cc1` as the molecule, how does the “log(activity)” value read?
**A.** 4.08

**Q.** With `Cc1cc(O)c(=O)c(O)cc1C(=O)c1cccc(Br)c1` as the molecule, how does the “log(activity)” value read?
**A.** 5.46

**Q.** With `Cc1cc(O)c(=O)c(O)cc1C(=O)c1ccccc1` as the molecule, how does the “log(activity)” value read?
**A.** 4.21

**Q.** With `Cc1cc(O)c(=O)c(O)cc1C(=O)c1cccc(-c2cccc3ccccc23)c1` as the molecule, how does the “log(activity)” value read?
**A.** 4.6

**Q.** For `Cc1cc(O)c(=O)c(O)cc1C(=O)c1ccc2ccc3cccc4ccc1c2c34`, which “log(activity)” value is on record?
**A.** 5.76

**Q.** Which “log(activity)” value does the source give for `Cc1cc(O)c(=O)c(O)cc1C(=O)c1ccccc1O` here?
**A.** 3.86

**Q.** Which “log(activity)” value does the source give for `Cc1cc(O)c(=O)c(O)cc1C(=O)c1cccs1` here?
**A.** 0.92

**Q.** With `CCCCCCCCCCCCCC(=O)c1cc(O)c(=O)c(O)cc1C` as the molecule, how does the “log(activity)” value read?
**A.** 4.31

System: Human alphaherpesvirus 1
Test: Antiviral activity against HSV-1 infected in African green monkey Vero cells assessed as suppression of viral replication after 24 hrs by plaque reduction assay based phase contrast microscopy
Format: functional, organism-based
Details: Human alphaherpesvirus 1, Vero

**Q.** Which EC50 does the source give for `Cc1cc(O)c(=O)c(O)cc1C(=O)C1CCCCC1` here?
**A.** 630 nM

**Q.** With `Cc1cc(O)c(=O)c(O)cc1C(=O)c1ccc(-c2ccccc2)cc1` as the molecule, how does the EC50 read?
**A.** 170 nM

**Q.** For `Cc1cc(O)c(=O)c(O)cc1C(=O)c1ccc2ccc3cccc4ccc1c2c34`, which EC50 is on record?
**A.** 60 nM

**Q.** For `CCCCCCCCCCCCCC(=O)c1cc(O)c(=O)c(O)cc1C`, which EC50 is on record?
**A.** 140 nM

System: not listed separately
Test: Inhibition of NTS in HSV-1 infected in African green monkey Vero cells assessed as suppression of viral replication by measuring viral titer after 24 hrs by plaque reduction assay based phase contrast microscopy
Format: cell-based
Details: Human alphaherpesvirus 1, Vero

**Q.** Which EC50 does the source give for `CC(C)=CCc1ccc(=O)c(O)cc1C(C)C` here?
**A.** 240 nM

**Q.** Which EC50 does the source give for `CC(C)c1ccc(O)c(=O)c(O)c1` [BETA-THUJAPLICINOL] here?
**A.** 2000 nM

**Q.** With `Cc1cc(O)c(=O)c(O)cc1C(=O)c1ccc(-c2ccccc2)cc1` as the molecule, how does the EC50 read?
**A.** 120 nM

**Q.** For `Cc1cc(O)c(=O)c(O)cc1-c1ccc(-c2ccccc2)cc1`, which EC50 is on record?
**A.** 180 nM

**Q.** With `C=C(C)[C@@H]1CCc2c(c(C)cc(O)c(=O)c2O)C1` as the molecule, how does the EC50 read?
**A.** 350 nM

System: not listed separately
Test: Inhibition of NTS in HSV-2 infected in African green monkey Vero cells assessed as suppression of viral replication by measuring viral titer after 24 hrs by plaque reduction assay based phase contrast microscopy
Format: cell-based
Details: Human alphaherpesvirus 2, Vero

**Q.** Which EC50 does the source give for `CC(C)=CCc1ccc(=O)c(O)cc1C(C)C` here?
**A.** 220 nM

**Q.** Which EC50 does the source give for `CC(C)c1ccc(O)c(=O)c(O)c1` [BETA-THUJAPLICINOL] here?
**A.** 1700 nM

**Q.** Which EC50 does the source give for `Cc1cc(O)c(=O)c(O)cc1C(=O)c1ccc(-c2ccccc2)cc1` here?
**A.** 81 nM

**Q.** With `Cc1cc(O)c(=O)c(O)cc1-c1ccc(-c2ccccc2)cc1` as the molecule, how does the EC50 read?
**A.** 210 nM

**Q.** Which EC50 does the source give for `C=C(C)[C@@H]1CCc2c(c(C)cc(O)c(=O)c2O)C1` here?
**A.** 580 nM

System: not listed separately
Test: Cytotoxicity against African green monkey Vero cells incubated for 24 hrs by MTT assay
Format: cell-based
Details: chlorocebus sabaeus

**Q.** For `CC(C)=CCc1ccc(=O)c(O)cc1C(C)C`, which CC50 at 24 h is on record?
**A.** 100000 nM

**Q.** For `CC(C)c1ccc(O)c(=O)c(O)c1` [BETA-THUJAPLICINOL], which CC50 at 24 h is on record?
**A.** > 100000 nM

**Q.** With `Cc1cc(O)c(=O)c(O)cc1C(=O)C1CCCCC1` as the molecule, how does the CC50 at 24 h read?
**A.** 73000 nM

**Q.** With `Cc1cc(O)c(=O)c(O)cc1C(=O)c1ccc(-c2ccccc2)cc1` as the molecule, how does the CC50 at 24 h read?
**A.** > 100000 nM

**Q.** With `Cc1cc(O)c(=O)c(O)cc1-c1ccc(-c2ccccc2)cc1` as the molecule, how does the CC50 at 24 h read?
**A.** > 100000 nM

**Q.** Which CC50 at 24 h does the source give for `Cc1cc(O)c(=O)c(O)cc1C(=O)c1ccc2ccc3cccc4ccc1c2c34` here?
**A.** > 100000 nM

**Q.** For `C=C(C)[C@@H]1CCc2c(c(C)cc(O)c(=O)c2O)C1`, which CC50 at 24 h is on record?
**A.** 100000 nM

**Q.** For `CCCCCCCCCCCCCC(=O)c1cc(O)c(=O)c(O)cc1C`, which CC50 at 24 h is on record?
**A.** 91000 nM

System: not listed separately
Test: Cytotoxicity against African green monkey Vero cells incubated for 72 hrs by MTS assay
Format: cell-based
Details: chlorocebus sabaeus

**Q.** Which CC50 at 72 h does the source give for `Cc1cc(O)c(=O)c(O)cc1C(=O)c1ccc(-c2ccccc2)cc1` here?
**A.** > 100000 nM

**Q.** With `Cc1cc(O)c(=O)c(O)cc1-c1ccc(-c2ccccc2)cc1` as the molecule, how does the CC50 at 72 h read?
**A.** > 100000 nM

System: Human alphaherpesvirus 1
Test: Antiviral activity against HSV-1 infected in African green monkey Vero cells assessed as suppression of viral replication at 1 uM after 24 hrs by plaque reduction assay based phase contrast microscopy relative to control
Format: functional
Details: not given

**Q.** With `CCCCCCCCCCCCCC(=O)c1cc(O)c(=O)c(O)cc1C` as the molecule, how does the “fold change (FC)” value read?
**A.** >10

System: not listed separately
Test: Therapeutic index, ratio of CC50 for African green monkey Vero cells to EC50 for HSV-1 infected in African green monkey Vero cells
Format: toxicity
Details: read-out: Ratio CC50/EC50

**Q.** For `Cc1cc(O)c(=O)c(O)cc1C(=O)C1CCCCC1`, which selectivity ratio is on record?
**A.** 116

**Q.** With `Cc1cc(O)c(=O)c(O)cc1C(=O)c1ccc(-c2ccccc2)cc1` as the molecule, how does the selectivity ratio read?
**A.** > 600

**Q.** For `Cc1cc(O)c(=O)c(O)cc1C(=O)c1ccc2ccc3cccc4ccc1c2c34`, which selectivity ratio is on record?
**A.** > 1800

**Q.** With `CCCCCCCCCCCCCC(=O)c1cc(O)c(=O)c(O)cc1C` as the molecule, how does the selectivity ratio read?
**A.** 631
